Assay results from US20200031784A1, “OZANIMOD ADDITION SALT CRYSTAL, PREPARATION METHOD, PHARMACEUTICAL COMPOSITION, AND USES” (Solipharma LLC, priority 2017, published 2020).
Structures can show the parent of a compound that is named as a salt. Where two headings read alike, the source gives them in different places.

Assays:
Type in all cases: physicochemical
[1] = Phase stability in aqueous system, slurry for 5 days (Comparative Example 2); conditions: slurry 5 days
Protocol: The phase stability of crystalline forms of ozanimod salts of Examples 1 to 124 and ozanimod hydrochloride crystalline form of Preparation Example 2 were tested in aqueous system.

[2] = Isothermal adsorption curve (dynamic vapor sorption), weight change; conditions: in the range of 0% to 50%
Protocol: Dynamic vapor sorption data and isothermal sorption data are collected on TA Instruments Q5000 TGA. A sample of 1 to 10 mg is usually placed in a platinum pan; and the TA software records the change in weight of the sample during relative humidity from 0% to 80% to 0%. Depending on the specifics of the sample, different adsorption and desorption steps are also applied to the sample.

[3] = Water solubility of crystalline ozanimod salt forms (Comparative Example 1)
Protocol: The water solubility of crystalline forms of ozanimod salts of Examples 1 to 124 and ozanimod hydrochloride of Preparation Example 2 were tested.

SMILES	Slurry for 5 days in ethanol/water (1:1) (solid state after slurry) [1]	Slurry for 5 days in water (solid state after slurry) [1]	weight change according to the isothermal adsorption curve [2]	25° C. water solubility ([3]; 25° C.)	37° C. water solubility ([3]; 37° C.)	solubility ([3]; 25° C., read-out: 25° C. water solubility)	solubility ([3]; 37° C., read-out: 37° C. water solubility)
CC(C)Oc1ccc(-c2nc(-c3cccc4c3CC[C@@H]4NCCO)no2)cc1C#N.O=C(O)C(O)C(O)C(=O)O [Ozanimod L-tartrate Form 1]	Crystalline	Crystalline	–	–	–	–	–
CC(C)Oc1ccc(-c2nc(-c3cccc4c3CC[C@@H]4NCCO)no2)cc1C#N.O=S(=O)(O)c1ccccc1 [Ozanimod besylate Form 1]	Crystalline	Crystalline	0.05%	–	–	–	–
CC(C)Oc1ccc(-c2nc(-c3cccc4c3CCC4NCCO)no2)cc1C#N.O=C(O)CC(O)(CC(=O)O)C(=O)O (stereo not drawn) [Ozanimod citrate Form 1]	Crystalline	Crystalline	–	–	–	–	–
CC(C)Oc1ccc(-c2nc(-c3cccc4c3CC[C@@H]4NCCO)no2)cc1C#N.O=P(O)(O)O [Ozanimod dihydrogen phosphate Form 1]	Crystalline	Crystalline	–	2540 µg/mL	7710 µg/mL	–	–
CC(C)Oc1ccc(-c2nc(-c3cccc4c3CC[C@@H]4NCCO)no2)cc1C#N.O=C(O)/C=C/C(=O)O [Ozanimod fumarate Form 1]	Crystalline	Crystalline	–	2340 µg/mL	4550 µg/mL	–	–
CC(C)Oc1ccc(-c2nc(-c3cccc4c3CC[C@@H]4NCCO)no2)cc1C#N.CC(C)Oc1ccc(-c2nc(-c3cccc4c3CC[C@@H]4NCCO)no2)cc1C#N.O=C(O)C[C@H](O)C(=O)O [Ozanimod hemi-L-malate Form 1]	Crystalline	Crystalline	–	10550 µg/mL	22620 µg/mL	–	–
CC(C)Oc1ccc(-c2nc(-c3cccc4c3CCC4NCCO)no2)cc1C#N.CC(C)Oc1ccc(-c2nc(-c3cccc4c3CCC4NCCO)no2)cc1C#N.O=C(O)C=CC(=O)O (stereo not drawn) [Ozanimod hemi-fumarate Form 1]	Crystalline	Crystalline	–	–	–	–	–
CC(C)Oc1ccc(-c2nc(-c3cccc4c3CCC4NCCO)no2)cc1C#N.CC(C)Oc1ccc(-c2nc(-c3cccc4c3CCC4NCCO)no2)cc1C#N.O=S(=O)(O)O (stereo not drawn) [Ozanimod hemisulfate Form 1]	Crystalline	Crystalline	–	–	–	–	–
Br.CC(C)Oc1ccc(-c2nc(-c3cccc4c3CC[C@@H]4NCCO)no2)cc1C#N [Ozanimod hydrobromide Form 1]	Crystalline	Crystalline	–	780 µg/mL	3490 µg/mL	–	–
CC(C)Oc1ccc(-c2nc(-c3cccc4c3CC[C@@H]4NCCO)no2)cc1C#N [Ozanimod hydrochloride form, reference compound]	Weak crystallinity	Amorphous	0.14%	–	–	610 µg/mL	2450 µg/mL
CC(C)Oc1ccc(-c2nc(-c3cccc4c3CCC4NCCO)no2)cc1C#N.O=S(=O)(O)O (stereo not drawn) [Ozanimod hydrosulfate Form 1]	Crystalline	Crystalline	–	–	–	–	–
CC(C)Oc1ccc(-c2nc(-c3cccc4c3CC[C@@H]4NCCO)no2)cc1C#N.O=C(O)/C=C\C(=O)O [Ozanimod maleate Form 1]	Crystalline	Crystalline	–	1200 µg/mL	5290 µg/mL	–	–
CC(C)Oc1ccc(-c2nc(-c3cccc4c3CC[C@@H]4NCCO)no2)cc1C#N.CS(=O)(=O)O [Ozanimod mesylate Form 1]	Crystalline	Crystalline	–	17600 µg/mL	53820 µg/mL	–	–
